In experiment [1] the test system is uropathogenic E. coli strain UTI89. Nature of the experiment: MIC of ciprofloxacin. The experiment is classed as cell-based, Escherichia coli.
In experiment [2] the test system is UMUC-3 bladder cancer cells. The experiment is described as follows: Cancer cell viability in clusters co-cultured with UTI89 (CT and CL models), Calcein-AM/Hoechst; doxorubicin dose-response. The experiment is classed as cell-based, human. Particulars: for IC50: Homo sapiens, UMUC3, MOI 1:1, concentration giving 50% cell viability. As for the experimental part: For CT models, bacterial suspension was centrifuged for 10,000 rpm for 5 min, and the supernatant was removed and replaced with MEM-α (10% supplemented with FBS, no added penicillin-streptomycin) at final dilutions at the rate of 500:1, 100:1, and 1:1 (bacteria:cell). After seeding and incubating for 24 h, the UMUC-3 cell clusters in the microchannels were stained using Hoechst dye for 30 minutes at 37° C. before infection. After original media with dye in channels was gently removed, the diluted bacterial suspension was added into 9 channels separately, three channels per concentration. The corresponding control group of the two models was obtained at time points before the introduction of bacteria.
As for CL models, bacteria suspended in MEM a and UMUC-3 cells (no added penicillin-streptomycin) were mixed before seeding at the rate of 500:1, 100:1, and 1:1. The device was incubated at 37° C. with 5% CO2 and in situ imaging and analyzing at 1 h, 9 h, and 24 h, respectively. Besides, an isolated channel only with 24 h cultured UMUC-3 was set as a negative control to indicate the beginning of the infection.
For fluorescent staining analysis, the nuclear dye Hoechst (Life Technologies) and Calcein-AM (Invitrogen) were added into cell suspension in the channel at dilution of 1:1000 (v/v). After incubating for 30 minutes at 37° C. for staining, the media was gently removed from each channel, and the device could be imaged via Nikon Ci-L fluorescent microscope directly at 10× magnification. The images processing and cell counting under fluorescent staining were done through ImageJ software. For infection analysis imaging, after incubating for 30 minutes with fluorescent dyes and remove the mixture of dyes and media in the channel, the channels were washed with 1×PBS to remove unbound bacteria and treated with 100 μg/mL gentamicin for 2 h to kill the extracellular bacteria, then the device could be imaged directly. […]

Experiment [3] has as its system UMUC-3 bladder cancer cells. The experiment is described as follows: In situ immunostaining of CD44 and CD24 after DNase treatment. The experiment is classed as cell-based, human. Particulars: CT model, 9 h after infection. As for the experimental part:
The infected cell clusters were firstly washed with 1×PBS gently and treated with 100 μg/mL gentamicin for 2 h to kill extracellular bacteria but keep the intracellular ones. Then channels were loaded PBS with antibody dyes at dilution of […] (v/v). After incubating for 30 minutes at room temperature for staining, the PBS was gently removed from each channel, and the stained clusters could be directly observed through a fluorescent microscope.
(§1) To dissolve the biofilm, 1×DNase (0.01 mg/mL; Sigma-Aldrich) diluted with fresh antibiotic-free culture media were added into channels after 1 h infection, and the device was continually incubated at 37° C. for 8 h. Then downstream in situ analysis was done after removing DNase and washing channels with PBS. The untreated clusters after 9 h infection were set as control.

Experiment [4] has as its system UMUC-3 bladder cancer cells. Nature of the experiment: Viability of non-infected cancer cells after DNase or Cipro treatment. The experiment is classed as cell-based, human. Particulars: uninfected control; Cipro 24 h.
Experiment [5] relates to UMUC-3 bladder cancer cells. Nature of the experiment: Cluster size after DNase treatment of coculture (in situ morphology analysis). Particulars: 0.01 mg/mL DNase, 9 h of infection. The class given is cell-based, human. As for the experimental part:
The clusters formed in the microwell after 24 h culture or infection were imaged via an optical microscope by the device put on the objective directly at 40× or 100× magnification. Each channel was shot at three frames at the top, middle and bottom state. The image processing and analysis of cluster size and density were done through ImageJ software.
as §1

Like-named read-outs stand apart in the source and are kept apart here.

As usually defined, the MIC is the smallest concentration in the dilution series that meets the test's criterion for growth inhibition. `O=C(O)c1cn(C2CC2)c2cc(N3CCNCC3)c(F)cc2c1=O` [ciprofloxacin]: the minimal inhibitory concentration (MIC) in experiment [1] (Escherichia coli, as printed in Example 7) stood at 0.025 µg/mL. Moreover, the MIC value in experiment [1] (as printed in legend of FIG. 14C) was 0.025 µg/mL.
What is called IC50 is the concentration needed to halve the response being measured. Consider `COc1cccc2c1C(=O)c1c(O)c3c(c(O)c1C2=O)C[C@@](O)(C(=O)CO)C[C@@H]3O[C@H]1C[C@H](N)[C@H](O)[C@H](C)O1` [doxorubicin], for which the IC50 in experiment [2] (CL model (intratumoral UTI89), read-out: IC50 of doxorubicin on cancer cells with the CL model) was 1590 nM; in experiment [2] (CT model (extratumoral UTI89), read-out: IC50 of doxorubicin on cancer cells with the CT model), 1790 nM.
Regarding DNase, in experiment [3], the “expression intensity of CD24, DNase-treated vs untreated control” value is “reduced” and the “expression intensity of CD44, DNase-treated vs untreated control” value is “reduced”. In addition, the “cancer cell viability in the CT model after biofilm disruption by DNase” value in experiment [2] (CT model, 9 h infection, more obvious at MOIs 100:1 and 500:1) is on record as “increased to a level comparable to that in the CL model”. For the same compound, the “adverse effect on non-infected cancer cells (viability)” value in experiment [4] is “neither ciprofloxacin nor DNase had adverse effect”. In addition, the “cluster size in the CL model after DNase treatment” value in experiment [5] (CL model) is on record as “slight increase in cluster size”. In addition, the “cluster size in the CT model after DNase treatment” value in experiment [5] (CT model) is “reverse the effect of cluster size reduction”.
